In patent US20070092551A1, “Therapeutic agent” (TAKARA BIO INC., priority 2003, published 2007):
Like-named read-outs stand apart in the source and are kept apart here.

Assays:
[1] = tested on: mature adipocytes (3T3-L1 cells); assay: Enhancing action on glucose uptake (2-deoxyglucose) into mature adipocytes; type: cell-based; details: Mus musculus
[2] = Toxicity test, forcible oral administration for 3 consecutive days; type: in vivo; details: female ICR mice, 1 g/kg forcibly orally once a day for 3 days, in CMC or olive oil
Protocol: The influence of 4-hydroxyderricin and xanthoangelol by forcible oral administration for 3 consecutive days was examined using female 12-week old ICR mice (Japan SLC, Inc.). 4-Hydroxyderricin or xanthoangelol was suspended or dissolved in a 0.5% (w/v) carboxymethyl cellulose solution (CMC) or an olive oil so as to have a concentration of 20% (w/v). The suspension or solution was forcibly orally administered once a day for 3 days in an amount of 5 mL per 1 kg body weight (1 g/kg in terms of 4-hydroxyderricin or xanthoangelol). Three cases were used for each group.

[3] = tested on: type II diabetes model mice; assay: Suppressive effects on incidence of diabetes (blend feed); type: in vivo, KK-Ay mice; details: 0.15% blend feed; for Blood Glucose Level, Previous Day: male 5-week old KK-Ay mice, day before beginning of administration; for Blood Glucose Level, Previous Day / Amount of Drunk Water, Ninth to Fifteenth Day / Amount of Drunk Water, Second to Eighth Day / Blood Glucose Level, Fifteenth Day: mean ± standard error; for effects for suppressing the incidence of diabetes (in words) / changes in body weight, amount of feed taken and general symptoms / Amount of Drunk Water, Ninth to Fifteenth Day / Amount of Drunk Water, Second to Eighth Day / Blood Glucose Level, Fifteenth Day: male KK-Ay mice; for changes in body weight, amount of feed taken and general symptoms: experimental period
Protocol: The suppressive effects of xanthoangelol and 4-hydroxyderricin on incidence of diabetes were examined using type II diabetes model mice. Experiments were carried out with seven male 5-week old KK-Ay mice (CLEA Japan, Inc.) per group. Xanthoangelol and 4-hydroxyderricin were each mixed in a powder feed (CE-2: CLEA Japan, Inc.) so as to have a ratio of 0.15%, and the mice were fed with the blended power feed. The mice in the control group were fed with the powder feed (CE-2). On the day before the beginning of administration, and on the fifteenth day, the blood glucose level was determined in the same manner as in Example 88. In addition, as an index of the incidence of diabetes, amounts of drunk water from the second to eighth days and from the ninth to fifteenth days from the administration were determined, and an average amount of drunk water per day was calculated, respectively. By administration of a mixed feed with xanthoangelol or 4-hydroxyderricin, the suppression of increase in a blood glucose level was found. Further, the suppression of increase in the amount of drunk water which is an index of the incidence of diabetes was found. […] During the experimental period, no changes were found in body weight, amount of feed taken and general symptoms.

[4] = 3T3-L1, 10 μM, X=(S−N)/(P−N) of 2-deoxyglucose uptake, P=insulin 1 μg/mL, read-out: Enhancing Action on Glucose Uptake
[5] = 3T3-L1, 30 μM, X=(S−N)/(P−N) of 2-deoxyglucose uptake, P=insulin 1 μg/mL, read-out: Enhancing Action on Glucose Uptake
[6] = 3T3-L1, read-out: Enhancing Action on Glucose Uptake

| Structure (SMILES) | activation at 3 µM ([1]; 3T3-L1, 3 μM, X=(S−N)/(P−N) of 2-deoxyglucose uptake, P=insulin 1 μg/mL, read-out: Enhancing Action on Glucose Uptake) | activation at 10 µM [1, 4] | activation at 30 µM [1, 5] | activation at 3 µM [1, 6] | activation at 10 µM [1, 6] | activation at 30 µM [1, 6] | cases of death [2] | change in general symptom [2] | Blood Glucose Level, Previous Day [3] | effects for suppressing the incidence of diabetes (in words) [3] | changes in body weight, amount of feed taken and general symptoms [3] | Amount of Drunk Water, Ninth to Fifteenth Day [3] | Amount of Drunk Water, Second to Eighth Day [3] | Blood Glucose Level, Fifteenth Day [3] |
| --- | --- | --- | --- | --- | --- | --- | --- | --- | --- | --- | --- | --- | --- | --- |
| COc1ccc(C(=O)/C=C/c2ccc(O)cc2)c(O)c1C/C=C(\C)CCC=C(C)C [Xanthoangelol F, 4,2′-Dihydroxy-3′-geranyl-4′-methoxychalcone] | 30 to 60% | > 100% | > 100% |  |  |  |  |  |  |  |  |  |  |  |
| COc1ccc(C(=O)/C=C/c2ccc(O)cc2)c(O)c1CC=C(C)C [4-Hydroxyderricin, 4,2′-Dihydroxy-3′-prenyl-4′-methoxychalcone] |  |  |  | 60 to 100% | > 100% | > 100% | No cases of death | no change | 226 ± 14 mg/dL | effects for suppressing the incidence of diabetes was found | no changes | 10.0 ± 0.6 mL/day | 7.6 ± 0.2 mL/day | 354 ± 24 mg/dL |
| COc1ccc(C(=O)/C=C/c2ccc(O)cc2)c2c1CC(O)C(C)(C)O2 (stereo not shown) [Xanthoangelol H] |  |  | 30 to 60% |  |  |  |  |  |  |  |  |  |  |  |
| CC(C)=CCC/C(C)=C/Cc1c(O)ccc(C(=O)/C=C/c2ccc(O)cc2)c1O [Xanthoangelol, 4,2′,4′-Trihydroxy-3′-geranylchalcone] |  | 30 to 60% | > 100% |  |  |  | No cases of death | no change | 232 ± 11 mg/dL | effects for suppressing the incidence of diabetes was found | no changes | 14.6 ± 2.0 mL/day | 10.3 ± 1.3 mL/day | 426 ± 39 mg/dL |
